Patent publication US20250090659A1, “COMBINATION THERAPY WITH AN ANTI-CD19 ANTIBODY AND PARSACLISIB” (Incyte Corporation, priority 2020, published 2025)

Tests used:
SuDHL6 cells = assay: Cell proliferation (Cell titer Glo), SuDHL6; assay type: cell-based; settings: no NK cells, 24, 48 and 72 hours
Procedure: (§1) Besides ADCC cytotoxicity, effects of tafasitamab and parsaclisib on cell proliferation were also evaluated by treating target cells with matrix dosing of tafasitamab and parsaclisib in the absence of NK cells. After 24 hours, 48 hours, and 72 hours, proliferation was assessed by adding 100 ul of Cell titer Glo to wells containing 100 ul of treated cells in duplicates. The data was presented as RLUs, which is in proportion to cell proliferation.

Pfeiffer cells = assay: Cell proliferation (Cell titer Glo), Pfeiffer; assay type: cell-based; settings: no NK cells, 24, 48 and 72 hours
Procedure: as §1

WSU-NHL cells = assay: Cell proliferation (Cell titer Glo), WSU-NHL; assay type: cell-based; settings: no NK cells, 24, 48 and 72 hours
Procedure: as §1

[1] = test system: A20 murine lymphoma cells; assay: In vivo efficacy in A20 mouse lymphoma model; parameters: species or system Balb/c mice
Procedure: Female Balb/c mice were subcutaneously inoculated with 5×10^5 A20 murine lymphoma cells to form flank tumors. When tumors reached approximately 100 mm^3, mice were randomized into 4 groups for dosing (N=10 mice/group). Dosing groups were as follows: (1) Vehicle (5% dimethyl acetimde+95% methylcellulose)-administered by mouth twice a day; (2) Murine anti-CD19 antibody (12014B35 from Absolute Antibody)—[…] administered intraperitoneally once weekly; (3) Parsaclisib (INCB050465)—3 mg/kg administered by mouth twice a day; and (4) Murine anti-CD19 antibody+Parsaclisib.
Tumor volumes were measured twice weekly. The study concluded when mean tumor volumes of each group reached 2000 mm^3. All doses were tolerated as assessed by body weights. Percent tumor growth inhibition (TGI %) was calculated by: [1-(mean tumor volume of test group)/(mean tumor volume of vehicle group)]×100. Tumor growth delay (TGD) was determined by the number of days needed (approximate) after dosing ceases for mean tumor volumes of dosed groups to reach the final mean tumor volume of the vehicle group.

SuDHL4 cells = assay: Cell proliferation (Cell titer Glo), SuDHL4; assay type: cell-based; settings: no NK cells, 24, 48 and 72 hours
Procedure: as §1

Mec1 cells = assay: ADCC assay with NK cells, Mec1 target cells; assay type: cell-based; settings: Mec1 cells pre-treated 7 days with parsaclisib 0.3 to 20 μM or DMSO, E:T 2:1, tafasitamab 1:10 dilutions from 1 μg/ml, 4 hours, dead target cells by flow cytometry
Procedure: (§2) The cytotoxicity of tafasitamab and parsaclisib (INCB050465) alone and in combination was tested in the following cells lines: MEC-1 (CLL), MEC-2 (CLL), JVM-2 (Mantle Cell Lymphoma), WSU-NHL, Pfeiffer, Su-DHL4, and Su-DHL6.
(§3) Target cells were pre-treated for 7 days with various doses of parsaclisib in the range of 0.3 to 20 μM (parsaclisib alone group and tafasitamab and parsaclisib combination group). The tafasitamab alone group was pre-treated with DMSO for the same period of time.
NK cells were isolated from human primary PBMC from multiple donors using EasySep™ Human NK Cell Isolation Kit (STEMCELL Technologies) and frozen. NK cells were thawed and cultured overnight in medium supplemented with 2 IU/ml of IL-2 (Peprotech) 24 hours before the ADCC assay.
The following controls were used in all experiments: (i) Target cells+NK cells without antibodies; (ii) Target cells+NK cells+huIgG1 isotype control antibody; and (iii) Target cells alone. […]
(§4) The cytotoxicity of tafasitamab alone was evaluated following the same procedure in cells that were treated with DMSO. […] After 4 hours incubation, cells were stained with Zombie Violet fixable cell viability dye (Biolegend 423114) and measured by flow cytometry to evaluate cell toxicity. […]

JVM2 cells [2] = assay: ADCC assay with NK cells, JVM2 target cells; assay type: cell-based; settings: JVM2 cells pre-treated 7 days with parsaclisib 0.3 to 20 μM or DMSO, E:T 2:1, tafasitamab 1:10 dilutions from 1 μg/ml, 4 hours, dead target cells by flow cytometry
Procedure: as §2, §3
NK cells were isolated from human primary PBMC from multiple donors using EasySep™ Human NK Cell Isolation Kit (STEMCELL Technologies) and frozen. NK cells were thawed and cultured overnight in medium supplemented with 2 IU/ml of IL-2 (Peprotech) 24 hours before the ADCC assay. […]
as §4
Data from two separately conducted experiments were analyzed to assess potential synergistic activity of tafasitamab and parsaclisib in JVM2 cells. […] Synergy scores were calculated using SynergyFinder 2.0 (https://synergyfinder.fimm.fi). […]

JVM2 cells [3] = assay: Cell proliferation (Cell titer Glo), JVM2; assay type: cell-based; settings: no NK cells, 24, 48 and 72 hours
Procedure: as §1

Mec2 cells = assay: Cell proliferation (Cell titer Glo), Mec2; assay type: cell-based; settings: no NK cells, 24, 48 and 72 hours
Procedure: as §1

Row | Molecule | cell proliferation (RLUs) (SuDHL6 cells) | cell proliferation (RLUs) (Pfeiffer cells) | cell proliferation (RLUs) (WSU-NHL cells) | TGI (%) ([1]; A20 flank tumors in Balb/c mice, antibody 150 mg i.p. once weekly, parsaclisib 3 mg/kg by mouth twice a day, vs vehicle group) | TGD ([1]; approximate days after dosing ceases for mean tumor volume to reach final mean tumor volume of vehicle group) [days] | cell proliferation (RLUs) (SuDHL4 cells) | ADCC activity (Mec1 cells) | ADCC activity (JVM2 cells [2]) | cell proliferation (RLUs) (JVM2 cells [3]) | cell proliferation (RLUs) (Mec2 cells)
1 | CCOc1c(C(C)n2nc(C)c3c(N)ncnc32)cc(Cl)c(F)c1C1CNC(=O)C1 (stereo not drawn) [Parsaclisib, 4-{3-[1-(4-amino-3-methyl-1H-pyrazolo[3,4-d]pyrimidin-1-yl)ethyl]-5-chloro-2-ethoxy-6-fluorophenyl}pyrrolidin-2-one] | showed sensitivity to neither | proliferation was inhibited by the treatment of parsaclisib in time and dose dependent manners | proliferation was inhibited by the treatment of parsaclisib in time and dose dependent manners | 26.6 | 1.4 | showed sensitivity to neither |  |  |  | 
2 | Tafasitamab: IgG1-G2/kappa Fc-engineered (S239D, I332E) monoclonal antibody targeting human CD19; heavy chain SEQ ID NO:2, light chain SEQ ID NO:3 (antibody) heavy: EVQLVESGGGLVKPGGSLKLSCAASGYTFTSYVMHWVRQAPGKGLEWIGYINPYNDGTKYNEKFQGRVTISSDKSISTAYMELSSLRSEDTAMYYCARGTYYYGTRVFDYWGQGTLVTVSSASTKGPSVFPLAPSSKSTSGGTAALGCLVKDYFPEPVTVSWNSGALTSGVHTFPAVLQSSGLYSLSSVVTVPSSSLGTQTYICNVNHKPSNTKVDKKVEPKSCDKTHTCPPCPAPELLGGPDVFLFPPKPKDTLMISRTPEVTCVVVDVSHEDPEVQFNWYVDGVEVHNAKTKPREEQFNSTFRVVSVLTVVHQDWLNGKEYKCKVSNKALPAPEEKTISKTKGQPREPQVYTLPPSREEMTKNQVSLTCLVKGFYPSDIAVEWESNGQPENNYKTTPPMLDSDGSFFLYSKLTVDKSRWQQGNVFSCSVMHEALHNHYTQKSLSLSPGK light: DIVMTQSPATLSLSPGERATLSCRSSKSLQNVNGNTYLYWFQQKPGQSPQLLIYRMSNLNSGVPDRFSGSGSGTEFTLTISSLEPEDFAVYYCMQHLEYPITFGAGTKLEIKRTVAAPSVFIFPPSDEQLKSGTASVVCLLNNFYPREAKVQWKVDNALQSGNSQESVTEQDSKDSTYSLSSTLTLSKADYEKHKVYACEVTHQGLSSPVTKSFNRGEC | showed sensitivity to neither |  |  |  |  | showed sensitivity to neither | displayed ADCC activity in a dose dependent manner | displayed ADCC activity in a dose dependent manner | proliferation was inhibited by tafasitamab in time and dose dependent manners | proliferation was inhibited by tafasitamab in time and dose dependent manners
